# Literature values as cited in patent US20050042271A1, “Transdermal delivery system for alkaloids of aconitum species” (priority 1999, published 2005).
# How the values were obtained:
# [1] = test system: opioid receptors
# [2] = all layers of epidermis and dermis; irreversible damage, scarring
Compound,affinity for opioid receptors [1],skin irritation [2]
CCN1C[C@]2(OC(=O)c3ccccc3NC(C)=O)CC[C@H](OC)[C@@]34[C@@H]2C[C@@H]([C@@H]13)[C@@]1(O)C[C@H](OC)[C@H]2C[C@@H]4[C@]1(O)[C@H]2OC [lappaconitine],without affinity for opioid receptors,
CCN1C[C@@]2(COC)[C@H]3[C@@H](OC)[C@H]4[C@@H]1[C@]3([C@@H](OC)C[C@H]2OC(C)=O)[C@@H]1C[C@@]2(O)[C@H](OC(=O)c3ccccc3)[C@@H]1[C@]4(OC(C)=O)[C@@H](O)[C@@H]2OC [3-acetylaconitine],without affinity for opioid receptors,
"CCCCCCCCCCCCN1CCCCCC1=O [Azone, laurocapram]",,severe skin irritation
bulleyaconitine A,without affinity for opioid receptors,
